In brackets after ≈: the same amount, converted by molar mass. Like-named read-outs stand apart in the source and are kept apart here.
Assays:
[1] = tested on: S. aureus ATCC 29213; test: Minimum inhibitory concentration (MIC) assay, broth microdilution; format: cell-based; settings: Staphylococcus aureus, ATCC29213; against S. aureus; visible growth after 18–24 h at 37° C.
Protocol: (§1) The antimicrobial activity of the compounds of the invention may be evaluated by a number of methods, including the following visual minimum inhibitory concentration (MIC) assay. This assay determines the minimum concentration of compound required to inhibit growth of a bacterial strain. Minimum Inhibitory Concentration (MIC) Assay Whole-cell antibacterial activity is determined by broth microdilution using conditions recommended by the National Committee for Clinical Laboratory Standards (NCCLS). […] Test compounds are dissolved in DMSO and diluted 1:50 in Mueller-Hinton II broth (Becton-Dickinson) to produce a 256 μg/ml stock solution. In a 96-well microtiter plate, the compound solution is serially two-fold diluted in Mueller-Hinton II broth. After the compounds are diluted, a 50 μl aliquot of the test organism (˜1×10^6 cfu/mL) is added to each well of the microtiter plate. The final test concentrations range from 0.125–128 μg/mL. Inoculated plates are incubated in ambient air at 37° C. for 18 to 24 hours. The organisms selected for testing included laboratory strains S. aureus ATCC 29213 and E. coli ATCC 25922 (strains purchased from American Type Culture Collection, Manassas, Va.). The minimum inhibitory concentration (MIC) was determined as the lowest concentration of compound that inhibited visible growth of the test organism.

[2] = tested on: E. coli ATCC 25922; test: as above; format: cell-based; settings: Escherichia coli, ATCC25922; against E. coli; visible growth after 18–24 h at 37° C.
Protocol: as §1

[3] = biological target: S. aureus DNA gyrase (Staphylococcus aureus, UniProt P0A0K8+P20831); test: DNA gyrase supercoiling assay; format: biochemical
[4] = biological target: T1, S. aureus topoisomerase IV (Staphylococcus aureus, UniProt P0C1S7+P0C1U9); test: Topoisomerase IV decatenation assay; format: biochemical
T1 construct: made in house; host or cells: E. coli
Protocol: Topoisomerase IV Activity
Enzyme activity is measured by a decatenation assay that monitors the ATP-dependent unlinking of DNA minicircles from kinetoplast DNA. Analysis is done by gel electrophoresis through 1% agarose/TBE gel. DNA is visualized with an Alpha Imager 2200 Analysis System and the IC50 determined by nonlinear regression analysis with Graphpad Prism software. S. aureus topoismerase IV enzyme subunits, grlA and grlB, are purified to homogeneity from over-expression plasmids in E. coli.

[5] = biological target: T2, E. coli DNA gyrase (Escherichia coli, UniProt P0AES4+P0AES6); test: DNA gyrase supercoiling assay; format: biochemical; settings: read-out: inhibition of E. coli DNA gyrase supercoiling IC50
T2 construct: made in house; host or cells: E. coli
Protocol: Enzyme activity is measured by a supercoiling assay that monitors the ATP-dependent conversion of relaxed pBR322 DNA to the supercoiled form. Analysis is done by gel electrophoresis through 1% agarose/TBE gel. DNA is visualized with an Alpha Imager 2200 Analysis System and the IC50 determined by nonlinear regression analysis with Graphpad Prism software. E. coli DNA gyrase enzyme subunits, gyrA and gyrB, are purified to homogeneity from over-expression constructs in E. coli.

[6] = Cell viability staining with Alamar Blue (cytotoxicity); format: cell-based; settings: human, HEP 2 (laryngeal carcinoma) cells; HEP 2 cells, positive control
Protocol: (§2) Optimal cell density is first determined by plating cells in a 96-well plate standard sterile tissue culture plates in 100 μl media, 10%FBS at six cell densities from 500 cells/well to 15,000 cells/well. A cell free well containing only media is used as a control. Cells are incubated at 37° C. in a 5% CO2 incubator for 24 hours. 10% culture volume (10 microliters) of Alamar Blue (Biosource, DAL1100, 100 ml) is then added. Cells are incubated at 37° C. in a 5% CO2 incubator and read in a Victor V plate reader, 544 nm excitation, 590 nm emission, at 3, 4, and 24 hours after the addition of Alamar Blue. The cell number vs. change in fluorescence is plotted to determine linearity of signal vs. cell number. The optimal density varies between 500–15,000 cells/well depending on the specific cell type. The optimal density is selected based on the highest number of cells that is still in the linear response range. Determination of Compound Cytotoxicity Cells are plated at optimal cell density in a standard sterile tissue culture 96 well plate, and incubated at 37° C. O/N in a 5% CO2 incubator. 12 to 48 hours post-plating media is removed. […] Plates are incubated 4 hours at 37° C. in a 5% CO2 incubator and read in a Victor V plate reader, 544 nm excitation, 590 nm emission. […] The change in fluorescence vs. concentration of test compound is plotted to determine the cytotoxicity of the compound.

[7] = as above; format: cell-based; settings: Chinese hamster, CHO (Chinese hamster ovary) cells, positive control
Protocol: as §2

Chain of S. aureus DNA gyrase (P20831 whole entry): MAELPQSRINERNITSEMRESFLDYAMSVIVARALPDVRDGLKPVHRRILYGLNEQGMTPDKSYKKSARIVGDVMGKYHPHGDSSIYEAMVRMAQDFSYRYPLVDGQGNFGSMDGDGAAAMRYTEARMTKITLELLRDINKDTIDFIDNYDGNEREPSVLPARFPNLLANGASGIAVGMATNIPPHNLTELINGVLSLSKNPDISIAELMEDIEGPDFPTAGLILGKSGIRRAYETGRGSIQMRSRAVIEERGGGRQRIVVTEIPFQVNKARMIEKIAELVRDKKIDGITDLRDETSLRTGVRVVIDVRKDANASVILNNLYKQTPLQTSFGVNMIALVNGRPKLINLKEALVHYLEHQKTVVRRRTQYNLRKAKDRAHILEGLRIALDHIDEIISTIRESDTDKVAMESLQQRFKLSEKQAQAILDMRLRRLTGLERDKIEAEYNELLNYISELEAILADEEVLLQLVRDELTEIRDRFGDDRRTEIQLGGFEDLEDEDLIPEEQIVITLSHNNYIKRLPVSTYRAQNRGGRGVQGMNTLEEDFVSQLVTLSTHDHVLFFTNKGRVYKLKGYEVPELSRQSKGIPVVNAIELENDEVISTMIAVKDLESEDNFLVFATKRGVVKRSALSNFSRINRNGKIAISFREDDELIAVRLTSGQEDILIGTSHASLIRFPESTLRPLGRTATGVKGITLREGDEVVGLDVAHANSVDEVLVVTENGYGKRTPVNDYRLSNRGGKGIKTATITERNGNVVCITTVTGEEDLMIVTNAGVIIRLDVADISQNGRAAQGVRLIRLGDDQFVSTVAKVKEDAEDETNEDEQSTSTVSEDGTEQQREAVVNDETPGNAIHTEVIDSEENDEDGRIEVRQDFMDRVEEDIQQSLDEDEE
Chain of S. aureus DNA gyrase (P0A0K8 whole entry): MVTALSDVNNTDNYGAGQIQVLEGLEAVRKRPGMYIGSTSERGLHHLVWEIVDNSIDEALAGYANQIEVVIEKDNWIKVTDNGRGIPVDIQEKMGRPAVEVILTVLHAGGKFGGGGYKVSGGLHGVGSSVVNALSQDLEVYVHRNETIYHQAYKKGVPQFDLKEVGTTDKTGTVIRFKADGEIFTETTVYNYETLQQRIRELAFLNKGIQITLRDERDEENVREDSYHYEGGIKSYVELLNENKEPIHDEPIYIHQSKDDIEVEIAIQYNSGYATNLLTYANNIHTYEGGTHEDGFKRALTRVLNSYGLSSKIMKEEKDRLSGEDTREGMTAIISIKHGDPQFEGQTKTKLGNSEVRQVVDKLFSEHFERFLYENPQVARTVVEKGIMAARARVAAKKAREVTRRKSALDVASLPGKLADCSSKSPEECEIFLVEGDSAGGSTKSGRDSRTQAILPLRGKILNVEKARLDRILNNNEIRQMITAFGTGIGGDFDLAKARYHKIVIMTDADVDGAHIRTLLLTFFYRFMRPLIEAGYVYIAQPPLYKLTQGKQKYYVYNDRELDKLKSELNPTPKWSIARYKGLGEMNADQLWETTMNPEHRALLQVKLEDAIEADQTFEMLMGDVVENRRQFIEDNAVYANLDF
T1 sequence (P0C1U9 whole entry): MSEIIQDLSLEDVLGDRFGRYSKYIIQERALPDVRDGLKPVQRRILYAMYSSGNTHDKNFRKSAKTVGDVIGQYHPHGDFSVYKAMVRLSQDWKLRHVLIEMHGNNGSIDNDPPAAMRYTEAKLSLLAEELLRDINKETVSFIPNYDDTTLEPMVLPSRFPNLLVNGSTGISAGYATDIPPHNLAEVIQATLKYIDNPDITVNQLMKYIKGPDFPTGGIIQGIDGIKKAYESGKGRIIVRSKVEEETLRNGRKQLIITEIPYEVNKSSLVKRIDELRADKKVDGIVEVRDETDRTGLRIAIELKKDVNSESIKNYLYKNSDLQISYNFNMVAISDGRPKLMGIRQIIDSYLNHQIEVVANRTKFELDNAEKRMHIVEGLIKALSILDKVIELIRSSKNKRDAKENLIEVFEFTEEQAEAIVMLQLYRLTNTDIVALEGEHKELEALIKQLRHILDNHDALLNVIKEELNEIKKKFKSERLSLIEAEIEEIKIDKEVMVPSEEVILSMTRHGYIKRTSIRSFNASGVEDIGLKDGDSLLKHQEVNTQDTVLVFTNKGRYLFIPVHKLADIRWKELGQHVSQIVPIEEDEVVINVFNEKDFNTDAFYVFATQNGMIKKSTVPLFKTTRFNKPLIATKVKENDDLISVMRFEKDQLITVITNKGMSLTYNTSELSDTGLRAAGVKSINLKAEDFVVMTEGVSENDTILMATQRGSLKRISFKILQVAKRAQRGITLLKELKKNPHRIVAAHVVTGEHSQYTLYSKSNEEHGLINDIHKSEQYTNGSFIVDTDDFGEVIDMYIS
T1 sequence (P0C1S7 whole entry): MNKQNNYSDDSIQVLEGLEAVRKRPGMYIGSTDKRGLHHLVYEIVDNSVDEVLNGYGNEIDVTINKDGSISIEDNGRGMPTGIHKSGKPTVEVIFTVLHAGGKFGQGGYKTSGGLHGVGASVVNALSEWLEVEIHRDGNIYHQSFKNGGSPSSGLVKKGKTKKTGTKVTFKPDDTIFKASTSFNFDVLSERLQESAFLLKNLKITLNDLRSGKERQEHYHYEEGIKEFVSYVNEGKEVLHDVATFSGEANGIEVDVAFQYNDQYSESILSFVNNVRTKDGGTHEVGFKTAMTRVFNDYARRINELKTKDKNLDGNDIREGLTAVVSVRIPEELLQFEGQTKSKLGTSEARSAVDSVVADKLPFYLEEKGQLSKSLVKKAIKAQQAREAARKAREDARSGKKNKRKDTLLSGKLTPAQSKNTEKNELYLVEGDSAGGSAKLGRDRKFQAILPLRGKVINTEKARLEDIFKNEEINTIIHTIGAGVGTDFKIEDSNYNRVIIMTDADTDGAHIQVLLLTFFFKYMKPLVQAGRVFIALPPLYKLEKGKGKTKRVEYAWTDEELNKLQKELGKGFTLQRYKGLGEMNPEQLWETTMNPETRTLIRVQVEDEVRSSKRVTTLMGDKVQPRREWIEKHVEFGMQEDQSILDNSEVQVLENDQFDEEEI
T2 sequence (P0AES4 whole entry, one chain of several): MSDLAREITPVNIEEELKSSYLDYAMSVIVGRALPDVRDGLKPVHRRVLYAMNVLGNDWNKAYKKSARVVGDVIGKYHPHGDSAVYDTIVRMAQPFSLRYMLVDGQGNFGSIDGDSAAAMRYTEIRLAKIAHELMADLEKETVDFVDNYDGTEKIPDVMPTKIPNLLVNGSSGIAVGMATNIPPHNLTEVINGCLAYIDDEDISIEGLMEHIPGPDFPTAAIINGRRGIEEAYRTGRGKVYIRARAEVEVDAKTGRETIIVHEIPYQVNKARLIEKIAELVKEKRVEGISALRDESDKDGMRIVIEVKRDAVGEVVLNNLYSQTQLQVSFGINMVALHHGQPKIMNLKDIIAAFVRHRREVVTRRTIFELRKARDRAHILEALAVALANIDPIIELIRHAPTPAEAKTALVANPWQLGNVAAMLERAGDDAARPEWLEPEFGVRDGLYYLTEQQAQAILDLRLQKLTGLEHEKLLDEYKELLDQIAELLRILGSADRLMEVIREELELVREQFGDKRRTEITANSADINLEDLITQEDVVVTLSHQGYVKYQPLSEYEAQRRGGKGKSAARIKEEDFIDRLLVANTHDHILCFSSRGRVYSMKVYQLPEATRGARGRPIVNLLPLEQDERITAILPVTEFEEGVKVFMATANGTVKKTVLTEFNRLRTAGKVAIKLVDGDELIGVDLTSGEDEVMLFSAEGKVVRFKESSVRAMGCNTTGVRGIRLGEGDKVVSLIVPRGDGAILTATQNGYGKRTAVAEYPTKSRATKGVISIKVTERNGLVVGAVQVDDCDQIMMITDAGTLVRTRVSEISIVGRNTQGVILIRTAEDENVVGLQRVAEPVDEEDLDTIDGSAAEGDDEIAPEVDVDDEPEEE

CCc1c2s[nH]c(=O)c2c(=O)n2ccc(N3CCNCC3)cc12 [Compound 8, 10-ethyl-8-(piperazin-1-yl)-2H-isothiazolo[5,4-b]quinolizine-3,4-dione]
MIC [1]: 10 µg/mL (≈ 30.3 µM) | MIC [2]: 10 µg/mL (≈ 30.3 µM) | IC50 [3]: > 200 µM | IC50 ([4]; read-out: inhibition of S. aureus topoisomerase IV activity IC50): < 10 µM | IC50 [5]: < 1 µM

CCc1c2s[nH]c(=O)c2c(=O)n2ccc(N3CCC(N(C)C)C3)cc12 (racemic) [Compound 7, 8-(3-(dimethylamino)pyrrolidin-1-yl)-10-ethyl-2H-isothiazolo[5,4-b]quinolizine-3,4-dione]
MIC [1]: 10 µg/mL (≈ 27.9 µM) | MIC [2]: 10 µg/mL (≈ 27.9 µM) | IC50 [4]: < 10 µM | IC50 [5]: < 1 µM

CC(C)(C)c1ccc(C(O)CCCN2CCC(C(O)(c3ccccc3)c3ccccc3)CC2)cc1 (stereo not drawn) [Terfenadine]
CC50 [6]: 3 to 5 µM | CC50 [7]: 4.3 to 6.5 µM

O=c1[nH]sc2c(C3CC3)c3cc(N4CC(O)C4)c(F)cn3c(=O)c12 [Compound 9, 10-cyclopropyl-7-fluoro-8-(3-hydroxyazetidin-1-yl)-2H-isothiazolo[5,4-b]quinolizine-3,4-dione]
IC50 [3]: > 200 µM

— US7199128B2, “8-N-substituted-2H-isothiazolo[5,4-b]quinolizine-3,4-diones and related compounds as antiinfective agents” (Achillion Pharmaceuticals, Inc., priority 2005, dated 2007)
